According to patent publication US20240011976A1, “ADDITIVES FOR REDUCING NON-SPECIFIC INTERACTIONS BETWEEN FLUORESCENT POLYMER CONJUGATES AND CELLS IN A BIOLOGICAL SAMPLE” (Beckman Coulter, Inc., priority 2008, published 2024):
“Also recorded” adds a separate entry of the source.

How the values were obtained:
[1] = system: monocytes/granulocytes; assay: Blood sample stained with unconjugated polymer dye SN v605 with and without Empigen BB, flow cytometry; assay type: cell-based; conditions: SN v605 without antibody, with EMPIGEN BB, FIG. 2
From the text: A blood sample was stained with unconjugated polymer dye SN v605 (without antibody), with and without Empigen BB®, and analyzed in a flow cytometer. […] In FIG. 2, the fluorescent polymer dye SN v605 without antibody was used to stain a blood sample and analyzed in a flow cytometer. […] While not wishing to be bound by any specific theory, it is thought that the polymer is likely adsorbing on the cell surface of monocytes and granulocytes.

[2] = system: granulocytes; assay: Non-specific binding of SN 605-CD20 and SN 786-CD103 conjugate lots to granulocytes with and without EMPIGEN BB (MdFI, dot plots); assay type: cell-based; conditions: with vs without surfactant (EMPIGEN BB), FIG. 3 and FIG. 6
Description: In order to confirm the effect of EMPIGEN BB®, two lots of SN 605-CD20 conjugates were tested in the presence and absence of EMPIGEN BB®. The mean fluorescence intensity (MFI) was compared to the autofluorescence (negative population median fluorescence intensity (MdFI)) of the monocytes from the unstained sample.
Two lots of SN 786-CD103 conjugates were tested in presence and absence of EMPIGEN BB® and the autofluorescence (negative population MdFI) of the monocyte and granulocyte population is compared against an unstained sample.

[3] = system: monocytes; assay: Anionic surfactant NLS, non-specific staining of CD20-SN v605 on monocytes, peripheral blood flow cytometry; assay type: cell-based; conditions: CD20-SN v605, buffer with BSA, sodium azide and Empigen BB, FIG. 17B
Description: (§1) In this example, different concentrations (0.16%, 0.08%, 0.04% and 0.02% w/v) of NLS was formulated with SN v605 CD20 conjugate in the presence of BSA and sodium azide and stained peripheral blood samples. Flow cytometry was performed following sample staining.

[4] = Empigen BB concentration in conjugate formulation and during staining versus CMC; assay type: physicochemical
Description: The micellar concentration was studied in samples and during the staining to be sure not to exceed critical micellar concentration (CMC). […] CMC was studied in the conjugate formulation and during the staining in 100 μL whole blood. Experiments were conducted to evaluate the impact of addition of EMPIGEN BB® on whole blood cell integrity and also on peripheral blood mononuclear cells (PMBCs).

[5] = system: granulocytes; assay: Anionic surfactant NLS, non-specific staining of CD20-SN v605 on granulocytes, peripheral blood flow cytometry; assay type: cell-based; conditions: CD20-SN v605, buffer with BSA, sodium azide and NLS, FIG. 17B
Description: as §1

[6] = system: positive lymphocytes; assay: Positive lymphocyte signal of SN 428 conjugates with EMPIGEN BB, whole blood flow cytometry; assay type: cell-based; conditions: compared to the condition without EMPIGEN
Description: (§2) The efficiency of zwitterionic surfactant EMPIGEN BB® on the reduction of non-specific binding with monocytes was evaluated. Other populations were also studied, namely lymphocytes and granulocytes, to evaluate the non-impact of the detergent on MFI and percentage of cells.
(§3) The experimental conditions were generally as follows: • CD19-SN 428 (lot D19-094, polymer lot RDS-042919 (82.7 kD), 1 dose (0.5 μg/test). • CD22-SN 428 (lot D19-109, polymer lot WX-20190624 (86.4 kD), 1 dose (0.5 μg/test). • CD25-SN 428 (lot D19-107, polymer lot RDS-062419 (72.8 kD), 1 dose (0.5 μg/test). • CD19, CD22 and CD25-BV 421 from Becton Dickinson at 1× commercial dose. • Three doses of EMPIGEN BB®0.06%, 0.12%, and 0.2% prepared in conjugate final formulation. • Added 10 μL sample with 100 μL whole blood. • Tested on 2 donors lysing with VersaLyse (lysing solution, used to lyse red blood cells, Beckman Coulter, Inc.)+Fix, one wash. • Navios flow cytometer acquisition on FL9.
(§4) The required x number of tubes were prepared, wherein “x number of tubes” depends on the performance tested. A calculated volume of conjugated antibody (at required dose) was added to each tube. Whole blood (100 μL) was added in each tube. The tubes were gently vortexed for 15 seconds and incubated for 15 to 20 minutes at room temperature at 18-25° C. and protected from light. […]

[7] = 20-25° C.; cited from earlier work
[8] = system: monocytes; assay: Monocyte background (non-specific binding) of SN 428 conjugates with EMPIGEN BB, whole blood flow cytometry; assay type: cell-based; conditions: 0.06 to 0.20% Empigen BB vs absence of surfactant, FIG. 11
Description: as §2, §3, §4

[9] = system: whole blood cells; assay: 7-AAD staining, percentage of dead cells in whole blood; assay type: cell-based; conditions: up to 0.2% EMPIGEN BB with CD19-SNv428, 7-AAD
Description: The percentage of dead cells in whole blood sample with the 7-AAD was evaluated. 7-AAD is a DNA marker, the staining is positive when the cellular membrane is permeabilized. CD19-SNv428 D19-094 without EMPIGEN BB®@(negative control) and with 0.06%, 0.12%, and 0.2% EMPIGEN BB®, was tested on four donors' whole blood, with the 7-ADD, to evaluate the percentage of dead cells in each condition. The goal of the experiment was to verify if the percentage of dead cells is not increased by the EMPIGEN BB® concentration.
Two whole blood samples that had been preserved for greater than 24 hours were added as positive control of 7-AAD staining.
Protocol for 7-AAD staining: • 100 μl whole blood+10 μl CD19-SNv428+/−Empigen, incubation 20 minutes. • Lyse with Versalyse, one wash, • Resuspension in 500 μl PBS 1× • Add 20 μl of 7-AAD (Ref B88526), incubation 15-20 minutes • Navios flow cytometer acquisition: FL4 for 7-AAD and FL9 for CD19-SNv428

[10] = system: granulocytes/monocytes; assay: Protein blockers, non-specific interactions of SN v605-CD20 conjugate with granulocytes/monocytes; assay type: cell-based
From the text: The issue of non-specific interaction on monocytes was also observed with conventional tandem dyes (e.g., PC5, PC5.5, PC7, AA700 available from Beckman Coulter, Inc.). To overcome this issue, it was thought that BSA-ox (oxidized BSA) and BSA-Cy5-ox (oxidized Cy5-BSA), which are known protein blockers, might prevent non-specific binding.

Molecule	non-specific binding of polymer dye to monocytes/granulocytes [1]	percentage of non-specifically bound granulocytes (dot plot gate) [2]	% population in the gate Mons Non-specific binding [3] [%]	concentration relative to CMC, formulation in the vial ([4]; 0.2% in the vial)	Empigen BB concentration, formulation in the vial ([4]; 0.2%, 2 g/L, 279 g/mol) [mM]	concentration relative to CMC during the staining ([4]; 100 μL WB, 10 μl conjugate)	Empigen BB concentration during the staining ([4]; 100 μL WB, 10 μl conjugate, dilution factor 11) [mM]	% population in the gate Grans Non-specific binding [5] [%]	variation of the positive signal on lymphocytes [6]	CMC [7] [mM]	non-specific monocyte interactions (negative monocyte MFI) [8]	percentage of dead cells / whole blood cell death [9]	percentage of non-specifically bound monocytes and granulocytes / controlling non-specific interactions ([10]; FIG. 10)	percentage of non-specifically bound monocytes and granulocytes / controlling non-specific interactions ([10]; FIG. 10, listed as oxidized BSA)
CCCCCCCCCCCC[N+](C)(C)CC(=O)[O-] [EMPIGEN BB®, N,N-dimethyl-N-dodecylglycine betaine]	substantially reduced; also recorded: reduced drastically; also recorded: substantial decrease	reduced	0.64	> CMC within the conjugate formulation	7.2	< CMC during the staining	0.65	0.68	did not induce a significant variation	1.6 to 2.1	lower percent of non-specific monocyte interactions	does not induce whole blood cell permeabilization or death; also recorded: didn't induce whole blood cell death; also recorded: not substantially increased	–	–
BSA-Cy5-ox: oxidized Cy5-BSA, known protein blocker	–	–	–	–	–	–	–	–	–	–	–	–	inefficient; also recorded: not substantially reduced	–
BSA-ox: oxidized BSA, known protein blocker	–	–	–	–	–	–	–	–	–	–	–	–	inefficient	not substantially reduced
